Data: patent US8026252B2 (priority 2005, dated 2011)
Like-named read-outs stand apart in the source and are kept apart here.

Key:
human μ opioid receptor = molecular target: T1, human μ opioid receptor (Homo sapiens, UniProt P35372); experiment: biochemical; type: binding
T1 construct: expressed in transfected cells

mice = conditions: cited from earlier work; for duration of action: 1 mg/kg ip in mice
κ opioid receptors = conditions: background, U.S. Pat. No. 6,784,187; cited from earlier work
guinea pig μ receptors = conditions: background, U.S. Pat. No. 6,784,187; cited from earlier work

T1 sequence (P35372 whole entry): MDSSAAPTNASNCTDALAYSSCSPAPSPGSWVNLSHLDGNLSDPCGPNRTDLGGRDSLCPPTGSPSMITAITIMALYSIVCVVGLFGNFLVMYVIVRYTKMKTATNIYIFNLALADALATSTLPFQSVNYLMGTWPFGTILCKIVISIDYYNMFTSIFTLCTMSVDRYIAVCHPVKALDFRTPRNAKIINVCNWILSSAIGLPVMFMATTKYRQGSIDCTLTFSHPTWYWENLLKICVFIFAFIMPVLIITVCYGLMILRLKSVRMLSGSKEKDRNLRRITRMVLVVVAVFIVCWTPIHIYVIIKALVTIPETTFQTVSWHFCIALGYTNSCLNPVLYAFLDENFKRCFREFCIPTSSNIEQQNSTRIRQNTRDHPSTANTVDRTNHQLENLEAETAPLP

Row | SMILES | Ki (human μ opioid receptor; [3H]DAMGO (μ)) [nM] | Ki (human μ opioid receptor; read-out: [3H]DAMGO (μ)) [nM] | further results
1 | C[C@H]1C2Cc3ccc(C(=O)NCCCCc4ccccc4)cc3[C@@]1(C)CCN2CC1CC1 [Example 60] | 4.3 ± 0.42 | – | –
2 | CC1[C@@H]2Cc3ccc(C(=O)NCCc4ccccc4)cc3[C@@]1(C)CCN2CC1CC1 (mixture of isomers) [Example 11, (±)-3-(Cyclopropylmethyl)-1,2,3,4,5,6-hexahydro-cis-6,11-dimethyl-N-(2-phenylethyl)-2,6-methano-3-benzazocine-8-carboxamide] | – | 3.5 ± 0.27 | –
3 | COc1ccc(-c2ccc(CCNC(=O)c3ccc4c(c3)[C@@]3(C)CCN(CC5CC5)C(C4)[C@@H]3C)cc2)cc1 [Example 48] | – | 0.084 ± 0.012 | –
4 | CC1[C@@H]2Cc3ccc(C(=O)NCCc4ccc(Oc5ccccc5)cc4)cc3[C@@]1(C)CCN2CC1CC1 (mixture of isomers) [Example 33, (±)-3-(Cyclopropylmethyl)-1,2,3,4,5,6-hexahydro-cis-6,11-dimethyl-N-(4-phenoxyphenethyl)-2,6-methano-3-benzazocine-8-carboxamide] | – | 0.059 ± 0.017 | –
5 | C[C@H]1C2Cc3ccc(C(N)=O)cc3[C@@]1(C)CCN2CC1CC1 [Example 8-CAC, 8-carboxamidocyclazocine] | – | – | duration of action (mice): 15 h; antinociception activity in vivo (mice; background): high antinociception activity; affinity for κ opioid receptors (κ opioid receptors): high affinity; affinity for μ opioid receptors (guinea pig μ receptors): high affinity
6 | CC1C2Cc3ccc(C(=O)NCCc4cccnc4)cc3C1(C)CCN2CC1CC1 (racemic) [Example 69] | 120 ± 3.6 | – | –
7 | CC1[C@@H]2Cc3ccc(C(=O)NCCc4ccccc4Br)cc3[C@@]1(C)CCN2CC1CC1 (mixture of isomers) [Example 52, (±)-3-(Cyclopropylmethyl)-1,2,3,4,5,6-hexahydro-cis-6,11-dimethyl-N-(2-bromophenethyl)-2,6-methano-3-benzazocine-8-carboxamide] | – | 4 ± 0.36 | –
8 | CC1[C@@H]2Cc3ccc(C(=O)NCCc4ccccc4Oc4ccccc4)cc3[C@@]1(C)CCN2CC1CC1 (mixture of isomers) [Example 35, (±)-3-(Cyclopropylmethyl)-1,2,3,4,5,6-hexahydro-cis-6,11-dimethyl-N-(2-phenoxyphenethyl)-2,6-methano-3-benzazocine-8-carboxamide] | – | 0.63 ± 0.09 | –
9 | C[C@H]1C2Cc3ccc(C(=O)NCCc4ccc(C(=O)NCCc5ccc(Br)cc5)cc4)cc3[C@@]1(C)CCN2CC1CC1 [Example 53] | 1.5 ± 0.18 | – | –
10 | O=C(NCCc1ccc(-c2ccccc2)cc1)c1ccc2c3c1OC1C(=O)CCC4(O)C(C2)N(CC2CC2)CCC314 (single isomer, unassigned; (-)) [Example 71, (−)-Q-naltrexone] | 1.4 ± 0.12 | – | –
11 | C[C@H]1C2Cc3ccc(C(=O)NCCc4ccc(-c5cccc(Cl)c5)cc4)cc3[C@@]1(C)CCN2CC1CC1 [Example 50] | 0.56 ± 0.087 | – | –
12 | CC1[C@@H]2Cc3ccc(C(=O)NCCc4cccc5ccccc45)cc3[C@@]1(C)CCN2CC1CC1 (mixture of isomers) [Example 40, (±)-3-(Cyclopropylmethyl)-1,2,3,4,5,6-hexahydro-cis-6,11-dimethyl-N-(2-(naphthalen-1-yl)ethyl)-2,6-methano-3-benzazocine-8-carboxamide] | – | 4.2 ± 0.13 | –
13 | CC1[C@@H]2Cc3ccc(C(=O)NCCc4cccc(Br)c4)cc3[C@@]1(C)CCN2CC1CC1 (mixture of isomers) [Example 30, (±)-3-(Cyclopropylmethyl)-1,2,3,4,5,6-hexahydro-cis-6,11-dimethyl-N-(3-bromophenethyl)-2,6-methano-3-benzazocine-8-carboxamide] | – | 0.35 ± 0.021 | –
14 | CC1[C@@H]2Cc3ccc(C(=O)NCCc4cccc(-c5ccccc5)c4)cc3[C@@]1(C)CCN2CC1CC1 (mixture of isomers) [Example 25, (±)-3-(Cyclopropylmethyl)-1,2,3,4,5,6-hexahydro-cis-6,11-dimethyl-N-(2-(biphenyl-3-yl)ethyl)-2,6-methano-3-benzazocine-8-carboxamide] | – | 0.95 ± 0.15 | –
15 | CC1[C@@H]2Cc3ccc(C(=O)NCCc4ccccc4-c4ccccc4)cc3[C@@]1(C)CCN2CC1CC1 (mixture of isomers) [Example 26, (±)-3-(Cyclopropylmethyl)-1,2,3,4,5,6-hexahydro-cis-6,11-dimethyl-N-(2-(biphenyl-2-yl)ethyl)-2,6-methano-3-benzazocine-8-carboxamide] | – | 6.7 ± 0.49 | –
16 | CC[C@@]12CCN(CC3CC3)C(C(=O)c3ccc(C(=O)NCCc4ccc(-c5ccccc5)cc4)cc31)[C@@H]2C (mixture of isomers) [Example 21, (±)-3-(Cyclopropylmethyl)-6-ethyl-1,2,3,4,5,6-hexaahydro-cis-11-methyl-N-(2-[1,1′-biphenyl]-4-ylethyl)-1-oxo-2,6-methano-3-benzazocine-8-carboxamide] | 4.9 ± 0.2 | – | –
17 | CC(NC(=O)c1ccc2c(c1)C1(C)CCN(CC3CC3)C(C2)C1C)c1ccccc1 (single isomer, unassigned) [Example 67] | 28 ± 1.4 | – | –

Row | SMILES | Ki (human μ opioid receptor; [3H]DAMGO (μ)) [nM] | Ki (human μ opioid receptor; read-out: [3H]DAMGO (μ)) [nM] | further results
18 | C[C@H]1C2Cc3ccc(C(=O)NCCc4ccc(-c5ccc(Cl)cc5)cc4)cc3[C@@]1(C)CCN2CC1CC1 [Example 49] | – | 0.2 ± 0.038 | –
19 | CC1C2Cc3ccc(C(=O)NCCCCCc4ccccc4)cc3C1(C)CCN2CC1CC1 (racemic) [Example 61] | 1.7 ± 0.15 | – | –
20 | CC1[C@@H]2Cc3ccc(C(=O)NCCCc4ccc5ccccc5c4)cc3[C@@]1(C)CCN2CC1CC1 (mixture of isomers) [Example 41, (±)-3-(Cyclopropylmethyl)-1,2,3,4,5,6-hexahydro-cis-6,11-dimethyl-N-(3-(naphthalen-2-yl)propyl)-2,6-methano-3-benzazocine-8-carboxamide] | – | 2.4 ± 0.45 | –
21 | Cc1ccc(-c2ccc(CCNC(=O)c3ccc4c(c3)[C@@]3(C)CCN(CC5CC5)C(C4)[C@@H]3C)cc2)cc1 [Example 51] | – | 0.29 ± 0.075 | –
22 | CC(NC(=O)c1ccc2c(c1)C1(C)CCN(CC3CC3)C(C2)C1C)c1ccccc1 (single isomer, unassigned) [Example 68] | 62 ± 3.3 | – | –
23 | CC1C2C(=O)c3ccc(C(=O)NCCc4ccc(-c5ccccc5)cc4)cc3C1(C)CCN2CC1CC1 (stereo not drawn) [Example 20] | 3.1 ± 1.3 | – | –
24 | O=C1CC[C@@]2(O)[C@H]3Cc4ccc(C(=O)NCCc5ccc(-c6ccccc6)cc5)c(O)c4[C@@]2(CCN3CC2CC2)C1 [Example 81, Q-naltrexone ring opened] | 0.71 ± 0.091 | – | –
25 | CC1[C@@H]2Cc3ccc(C(=O)NCCc4ccc(Cc5ccccc5)cc4)cc3[C@@]1(C)CCN2CC1CC1 (mixture of isomers) [Example 27, (±)-3-(Cyclopropylmethyl)-1,2,3,4,5,6-hexahydro-cis-6,11-dimethyl-N-(4-benzylphenethyl)-2,6-methano-3-benzazocine-8-carboxamide] | – | 0.23 ± 0.032 | –
26 | CC1[C@@H]2Cc3ccc(C(=O)NCCCc4ccc5ccccc5c4)cc3[C@@]1(C)CCN2CC1CC1 (mixture of isomers) [Example 38, (±)-3-(Cyclopropylmethyl)-1,2,3,4,5,6-hexahydro-cis-6,11-dimethyl-N-(3-(naphthalen-2-yl)propyl)-2,6-methano-3-benzazocine-8-carboxamide] | – | 1.9 ± 0.19 | –
27 | CC1[C@@H]2Cc3ccc(C(=O)NCCCc4ccccc4)cc3[C@@]1(C)CCN2CC1CC1 (mixture of isomers) [Example 12, (±)-3-(Cyclopropylmethyl)-1,2,3,4,5,6-hexahydro-cis-6,11-dimethyl-N-(3-phenylpropyl)-2,6-methano-3-benzazocine-8-carboxamide] | – | 2.5 ± 0.27 | –
28 | O=C(NCCc1ccc(-c2ccccc2)cc1)c1ccc2c(c1)[C@@]13CCCC[C@@]1(O)[C@@H](C2)N(CC1CCC1)CC3 [Example 79, (−)-Q-butorphanol] | 0.32 ± 0.048 | – | –
29 | C[C@H]1[C@H]2Cc3ccc(O)cc3[C@]1(C)CCN2CC1CC1 [cyclazocine] | – | – | duration of action (mice): 2 h
30 | CC1[C@@H]2Cc3ccc(C(=O)NCCc4ccc(Br)cc4)cc3[C@@]1(C)CCN2CC1CC1 (mixture of isomers) [Example 29, (±)-3-(Cyclopropylmethyl)-1,2,3,4,5,6-hexahydro-cis-6,11-dimethyl-N-(4-bromophenethyl)-2,6-methano-3-benzazocine-8-carboxamide] | – | 2.4 ± 0.33 | –
31 | CC1[C@@H]2Cc3ccc(C(=O)NCCc4cccc(Oc5ccccc5)c4)cc3[C@@]1(C)CCN2CC1CC1 (mixture of isomers) [Example 34, (±)-3-(Cyclopropylmethyl)-1,2,3,4,5,6-hexahydro-cis-6,11-dimethyl-N-(3-phenoxyphenethyl)-2,6-methano-3-benzazocine-8-carboxamide] | – | 0.54 ± 0.16 | –
32 | CC(CNC(=O)c1ccc2c(c1)[C@@]1(C)CCN(CC3CC3)C(C2)[C@@H]1C)c1ccc(-c2ccccc2)cc1 (stereo partly drawn) [Example 46] | 18 ± 1.1 | – | –
33 | CC1[C@@H]2Cc3ccc(C(=O)NCCc4ccc5ccccc5c4)cc3[C@@]1(C)CCN2CC1CC1 (mixture of isomers) [Example 37, (±)-3-(Cyclopropylmethyl)-1,2,3,4,5,6-hexahydro-cis-6,11-dimethyl-N-(2-(naphthalen-2-yl)ethyl)-2,6-methano-3-benzazocine-8-carboxamide] | – | 0.18 ± 0.009 | –
